{"source": "paper PMC6599640", "about": "(Pharmaceutical research, 2018)", "key": {"in vitro [1]": {"test": "in vitro", "conditions": "human, Caco-2"}, "[2]": {"test": "MTT viability assay on SMI microtissues after drug exposure", "conditions": "human, SMI (small intestinal) microtissues"}, "P-gp": {"target": "P-gp (Homo sapiens, UniProt P08183)", "sequence (P08183 whole entry)": "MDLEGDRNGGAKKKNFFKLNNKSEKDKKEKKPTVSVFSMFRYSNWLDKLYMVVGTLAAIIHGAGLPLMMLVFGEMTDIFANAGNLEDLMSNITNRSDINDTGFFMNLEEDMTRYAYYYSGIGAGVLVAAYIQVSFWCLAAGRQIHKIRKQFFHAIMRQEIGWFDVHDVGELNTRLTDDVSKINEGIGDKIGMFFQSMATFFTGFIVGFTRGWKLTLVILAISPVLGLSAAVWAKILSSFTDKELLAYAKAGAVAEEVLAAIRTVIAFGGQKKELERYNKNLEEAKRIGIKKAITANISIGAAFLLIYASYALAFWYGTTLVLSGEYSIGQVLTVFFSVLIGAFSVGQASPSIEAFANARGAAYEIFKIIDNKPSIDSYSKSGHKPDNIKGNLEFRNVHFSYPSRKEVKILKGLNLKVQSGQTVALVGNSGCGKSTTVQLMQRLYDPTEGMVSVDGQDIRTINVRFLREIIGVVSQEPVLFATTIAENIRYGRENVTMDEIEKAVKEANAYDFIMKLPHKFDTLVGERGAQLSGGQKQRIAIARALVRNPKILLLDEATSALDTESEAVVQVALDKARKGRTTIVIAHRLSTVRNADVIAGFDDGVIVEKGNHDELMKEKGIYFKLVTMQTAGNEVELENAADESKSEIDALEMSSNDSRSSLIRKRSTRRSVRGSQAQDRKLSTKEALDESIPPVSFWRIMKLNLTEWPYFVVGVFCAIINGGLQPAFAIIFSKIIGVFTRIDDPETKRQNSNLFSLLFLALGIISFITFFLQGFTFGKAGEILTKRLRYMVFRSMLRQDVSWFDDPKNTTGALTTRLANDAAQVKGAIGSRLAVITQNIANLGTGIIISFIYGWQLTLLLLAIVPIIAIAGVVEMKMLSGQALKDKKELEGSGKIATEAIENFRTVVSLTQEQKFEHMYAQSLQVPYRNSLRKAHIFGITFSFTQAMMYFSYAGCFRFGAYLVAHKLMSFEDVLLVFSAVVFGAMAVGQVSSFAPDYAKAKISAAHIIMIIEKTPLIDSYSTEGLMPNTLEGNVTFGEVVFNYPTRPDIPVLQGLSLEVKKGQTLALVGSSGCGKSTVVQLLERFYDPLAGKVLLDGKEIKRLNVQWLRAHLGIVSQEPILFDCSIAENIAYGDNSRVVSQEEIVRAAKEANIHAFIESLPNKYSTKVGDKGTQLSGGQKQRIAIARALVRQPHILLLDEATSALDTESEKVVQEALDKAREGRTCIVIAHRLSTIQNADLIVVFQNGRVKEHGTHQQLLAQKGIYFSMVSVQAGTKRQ", "test": "in vitro"}, "SMI microtissues [3]": {"tested_on": "SMI microtissues", "test": "Drug permeability across SMI microtissues", "conditions": "for Efflux: Table VIII, 10 μM, 2 h"}, "[4]": {"test": "Drug permeability across SMI microtissues", "conditions": "human, A-B Papp, Table VIII, 10 μM, 2 h, n = 3"}, "BCRP": {"target": "BCRP (Homo sapiens, UniProt Q9UNQ0)", "sequence (Q9UNQ0 whole entry)": "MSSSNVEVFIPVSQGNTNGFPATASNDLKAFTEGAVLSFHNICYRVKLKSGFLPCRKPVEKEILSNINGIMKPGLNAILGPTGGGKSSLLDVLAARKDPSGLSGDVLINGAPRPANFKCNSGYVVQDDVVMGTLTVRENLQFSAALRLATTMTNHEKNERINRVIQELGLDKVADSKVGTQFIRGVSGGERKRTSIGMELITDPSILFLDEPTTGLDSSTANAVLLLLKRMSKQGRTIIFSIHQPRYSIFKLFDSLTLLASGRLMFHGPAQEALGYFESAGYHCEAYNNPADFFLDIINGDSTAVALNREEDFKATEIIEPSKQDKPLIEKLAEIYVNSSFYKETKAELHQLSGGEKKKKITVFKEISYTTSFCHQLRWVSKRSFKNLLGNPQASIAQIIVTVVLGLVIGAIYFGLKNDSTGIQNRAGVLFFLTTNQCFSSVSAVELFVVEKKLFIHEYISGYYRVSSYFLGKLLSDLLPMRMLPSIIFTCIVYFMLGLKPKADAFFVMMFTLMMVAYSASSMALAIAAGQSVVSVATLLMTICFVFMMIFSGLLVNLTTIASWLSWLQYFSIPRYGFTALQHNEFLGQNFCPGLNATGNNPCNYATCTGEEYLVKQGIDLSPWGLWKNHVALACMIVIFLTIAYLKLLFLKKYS", "test": "in vitro"}, "Caco-2 cell monolayers": {"tested_on": "Caco-2 cell monolayers", "conditions": "Table VI; 10 μM, 2 h"}, "[5]": {"conditions": "cited from earlier work"}, "SMI microtissues [6]": {"tested_on": "SMI microtissues"}, "in vitro [7]": {"test": "in vitro", "conditions": "human"}}, "note": "Like-named read-outs stand apart in the source and are kept apart here.", "data": [{"smiles": "CCCC(=O)Nc1ccc(OCC(O)CNC(C)C)c(C(C)=O)c1", "note": "(centres unmarked) [Acebutolol]", "values": [{"measurement": "Papp at 2 h, 10 μM", "setting": "in vitro [1]", "result": 0.4, "unit": "×10⁻⁶ cm/s"}, {"measurement": "viability at 96 h, 1 µM", "setting": "[2]", "result": 98.5, "unit": "%"}, {"measurement": "viability at 96 h, 10 µM", "setting": "[2]", "result": 97.5, "unit": "%"}]}, {"smiles": "Nc1nc2c(ncn2COCCO)c(=O)[nH]1", "note": "[Acyclovir]", "values": [{"measurement": "Papp at 2 h, 10 μM", "setting": "in vitro [1]", "result": 0.9, "unit": "×10⁻⁶ cm/s"}, {"measurement": "viability at 96 h, 1 µM", "setting": "[2]", "result": 104, "unit": "%"}, {"measurement": "viability at 96 h, 10 µM", "setting": "[2]", "result": 97.6, "unit": "%"}, {"measurement": "viability at 96 h, 100 µM", "setting": "[2]", "result": 91.1, "unit": "%"}]}, {"smiles": "CN/C(=N/CCSCc1nc[nH]c1C)NC#N", "note": "[Cimetidine]", "values": [{"measurement": "Papp at 2 h, 10 μM", "setting": "in vitro [1]", "result": 2.7, "unit": "×10⁻⁶ cm/s"}, {"measurement": "viability at 96 h, 1 µM", "setting": "[2]", "result": 109, "unit": "%"}, {"measurement": "viability at 96 h, 10 µM", "setting": "[2]", "result": 103, "unit": "%"}, {"measurement": "viability at 96 h, 100 µM", "setting": "[2]", "result": 96.1, "unit": "%"}]}, {"smiles": "C[C@H]1O[C@@H](O[C@H]2[C@@H](O)C[C@H](O[C@H]3[C@@H](O)C[C@H](O[C@H]4CC[C@@]5(C)[C@H](CC[C@@H]6[C@@H]5C[C@@H](O)[C@]5(C)[C@@H](C7=CC(=O)OC7)CC[C@]65O)C4)O[C@@H]3C)O[C@@H]2C)C[C@H](O)[C@@H]1O", "note": "[Digoxin]", "values": [{"measurement": "Papp B→A at 2 h, 10 μM", "setting": "P-gp", "result": "29 ± 5", "unit": "×10⁻⁶ cm/s"}, {"measurement": "Papp at 2 h, 10 μM", "setting": "P-gp", "result": "12.6 ± 0.74", "unit": "×10⁻⁶ cm/s"}, {"measurement": "efflux ratio at 2 h, 10 μM", "setting": "P-gp", "result": 2.3}, {"measurement": "Papp at 2 h, 10 μM", "setting": "P-gp; with Verapamil 100 uM", "result": "16 ± 1.75", "unit": "×10⁻⁶ cm/s"}, {"measurement": "efflux ratio at 2 h, 10 μM", "setting": "P-gp; with Verapamil 100 uM", "result": 1.4}]}, {"smiles": "CCOC(=O)[C@H](CCc1ccccc1)N[C@@H](C)C(=O)N1CCC[C@H]1C(=O)O", "note": "[Enalapril]", "values": [{"measurement": "Papp at 2 h, 10 μM", "setting": "in vitro [1]", "result": 0.2, "unit": "×10⁻⁶ cm/s"}, {"measurement": "viability at 96 h, 1 µM", "setting": "[2]", "result": 109, "unit": "%"}, {"measurement": "viability at 96 h, 10 µM", "setting": "[2]", "result": 105, "unit": "%"}, {"measurement": "viability at 96 h, 100 µM", "setting": "[2]", "result": 99, "unit": "%"}]}, {"smiles": "CC[C@H]1OC(=O)[C@H](C)[C@@H](O[C@H]2C[C@@](C)(OC)[C@@H](O)[C@H](C)O2)[C@H](C)[C@@H](O[C@@H]2O[C@H](C)C[C@H](N(C)C)[C@H]2O)[C@](C)(O)C[C@@H](C)C(=O)[C@H](C)[C@@H](O)[C@]1(C)O", "note": "[Erythromycin]", "values": [{"measurement": "Papp at 2 h, 10 μM", "setting": "in vitro [1]", "result": 0.2, "unit": "×10⁻⁶ cm/s"}]}, {"smiles": "O=C1NC(c2ccccc2)(c2ccccc2)C(=O)N1COP(=O)(O)O", "note": "[Fosphenytoin]", "values": [{"measurement": "Efflux", "setting": "SMI microtissues [3]", "result": 0.31}, {"measurement": "Papp A→B at 2 h, 10 μM", "setting": "[4]; Transport A-B", "result": 12.3, "unit": "×10⁻⁶ cm/s"}, {"measurement": "Papp A→B at 2 h, 10 μM", "setting": "[4]; line Transport B-A", "result": 3.77, "unit": "×10⁻⁶ cm/s"}]}, {"smiles": "CN(C)C(=O)C(CCN1CCC(O)(c2ccc(Cl)cc2)CC1)(c1ccccc1)c1ccccc1", "note": "[Loperamide]", "values": [{"measurement": "efflux ratio at 2 h, 10 μM", "setting": "P-gp; Efflux ratio, with inhibitor Verapamil 100 uM, substrate 10 μM, 2 hr", "result": 6.5}, {"measurement": "Papp at 2 h, 10 μM", "setting": "P-gp; Mean A- > B Papp, No Inhibitor, substrate 10 μM, 2 hr, n = 3", "result": 0.9, "unit": "×10⁻⁶ cm/s"}, {"measurement": "Papp B→A at 2 h, 10 μM", "setting": "P-gp; Mean B- > A Papp, No Inhibitor, substrate 10 μM, 2 hr, n = 3", "result": "15.5 ± 4.6", "unit": "×10⁻⁶ cm/s"}]}, {"smiles": "Cc1ncc2n1-c1ccc(Cl)cc1C(c1ccccc1F)=NC2", "note": "[Midazolam]", "values": [{"measurement": "Efflux", "setting": "SMI microtissues [3]", "result": 0.95}, {"measurement": "Papp A→B at 2 h, 10 μM", "setting": "[4]; Transport A-B", "result": 14.4, "unit": "×10⁻⁶ cm/s"}, {"measurement": "Papp A→B at 2 h, 10 μM", "setting": "[4]; line Transport B-A", "result": 13.7, "unit": "×10⁻⁶ cm/s"}]}, {"smiles": "O=C1CN(/N=C/c2ccc([N+](=O)[O-])o2)C(=O)N1", "note": "[Nitrofurantoin]", "values": [{"measurement": "Papp B→A at 2 h, 10 μM", "setting": "BCRP", "result": "28.4 ± 3.3", "unit": "×10⁻⁶ cm/s"}, {"measurement": "Papp at 2 h, 10 μM", "setting": "BCRP", "result": "2.7 ± 1.6", "unit": "×10⁻⁶ cm/s"}, {"measurement": "Papp B→A at 2 h, 10 μM", "setting": "BCRP; with Novobiocin 50 uM", "result": "18.9 ± 1", "unit": "×10⁻⁶ cm/s"}, {"measurement": "Papp at 2 h, 10 μM", "setting": "BCRP; with Novobiocin 50 uM", "result": "4.7 ± 0.65", "unit": "×10⁻⁶ cm/s"}]}, {"smiles": "CC(C)NCC(O)COc1cccc2ccccc12", "note": "(centres unmarked) [Propranolol]", "values": [{"measurement": "Caco-2 mean A- > B Papp", "setting": "Caco-2 cell monolayers", "result": "12.9 10^−6 cm s^−1"}]}, {"smiles": "C=C[C@H]1C[N@@]2CC[C@H]1C[C@@H]2[C@@H](O)c1ccnc2ccc(OC)cc12", "note": "[Quinidine]", "values": [{"measurement": "Fraction absorbed (%) in humans", "setting": "[5]; in vivo", "result": 80, "unit": "%"}, {"measurement": "viability at 96 h, 1 µM", "setting": "[2]", "result": 99.4, "unit": "%"}, {"measurement": "viability at 96 h, 10 µM", "setting": "[2]", "result": 100, "unit": "%"}, {"measurement": "viability at 96 h, 100 µM", "setting": "[2]", "result": 99.3, "unit": "%"}]}, {"smiles": "CNC(=C[N+](=O)[O-])NCCSCc1ccc(CN(C)C)o1", "note": "[Ranitidine]", "values": [{"measurement": "Papp A→B at 2 h, 10 μM", "setting": "in vitro [1]", "result": 0.2, "unit": "×10⁻⁶ cm/s"}, {"measurement": "Papp at 2 h, 10 μM", "setting": "in vitro [1]", "result": 0.1, "unit": "×10⁻⁶ cm/s"}, {"measurement": "Papp A- > B SMI microtissues", "setting": "SMI microtissues [3]; Table V, mean of n = 2 SMI microtissue lots", "result": "2.2 ± 0.5 10^−6 cm^s−1"}, {"measurement": "Fraction absorbed in humans (class)", "setting": "[5]; Table IX, class in brackets, no reference given", "result": "Moderate"}, {"measurement": "viability at 96 h, 1 µM", "setting": "[2]", "result": 102, "unit": "%"}, {"measurement": "viability at 96 h, 10 µM", "setting": "[2]", "result": 98.1, "unit": "%"}, {"measurement": "viability at 96 h, 100 µM", "setting": "[2]", "result": 96, "unit": "%"}]}, {"smiles": "CC(C)c1nc(N(C)S(C)(=O)=O)nc(-c2ccc(F)cc2)c1/C=C/[C@@H](O)C[C@@H](O)CC(=O)O", "note": "[Rosuvastatin]", "values": [{"measurement": "Papp B→A at 2 h, 10 μM", "setting": "P-gp", "result": "9.4 ± 1", "unit": "×10⁻⁶ cm/s"}, {"measurement": "Papp at 2 h, 10 μM", "setting": "P-gp", "result": "0.5 ± 0.07", "unit": "×10⁻⁶ cm/s"}, {"measurement": "Papp B→A at 2 h, 10 μM", "setting": "P-gp; with Elacider 100 uM", "result": "5.3 ± 0.3", "unit": "×10⁻⁶ cm/s"}]}, {"smiles": "CC(=O)CC(c1ccccc1)c1c(O)c2ccccc2oc1=O", "note": "(centres unmarked) [Warfarin]", "values": [{"measurement": "Papp A- > B SMI microtissues", "setting": "SMI microtissues [6]", "result": "22.3 ± 0.5 10^−6 cm^s−1"}, {"measurement": "Papp A→B at 2 h, 10 μM", "setting": "in vitro [1]", "result": "27.8 ± 7.6", "unit": "×10⁻⁶ cm/s"}, {"measurement": "Papp at 2 h, 10 μM", "setting": "in vitro [1]", "result": 28.6, "unit": "×10⁻⁶ cm/s"}, {"measurement": "Papp at 2 h, 10 μM", "setting": "in vitro [7]; Lot #1 Mean A- > B Papp", "result": "48.5 ± 8.18", "unit": "×10⁻⁶ cm/s"}, {"measurement": "Papp at 2 h, 10 μM", "setting": "in vitro [7]; Lot #2 Mean A- > B Papp", "result": "24.3 ± 0.86", "unit": "×10⁻⁶ cm/s"}, {"measurement": "Papp at 2 h, 10 μM", "setting": "in vitro [7]; Lot #3 Mean A- > B Papp", "result": "19.9 ± 3.45", "unit": "×10⁻⁶ cm/s"}, {"measurement": "Papp at 2 h, 10 μM", "setting": "in vitro [7]; SMI mean A- > B Papp", "result": "36.7 ± 16.8", "unit": "×10⁻⁶ cm/s"}]}]}
